Tested on: Influenza A virus
Assay: Antiviral activity against drug-resistant Influenza A virus A/M2-V27A mutant assessed as viral growth inhibition
Type: functional, organism-based

SMILES | IC50 [µM]
NC1CCC2(CCCC2)CC1 | 319
NC1CC[Si]2(CCCC2)CC1 | 96.3

— ChEMBL document CHEMBL5096153, “Spirocyclic Scaffolds in Medicinal Chemistry” (J Med Chem, 2021)
